Reference: ChEMBL document CHEMBL2163249, “Exploration of natural compounds as sources of new bifunctional scaffolds targeting cholinesterases and beta amyloid aggregation: the case of chelerythrine” (Bioorg Med Chem, 2012)

How the values were obtained:
[1] = target: Cholinesterase (Equus caballus) (UniProt P81908); conditions: at 2 mg/mL
Description: Inhibition of horse BChE at 2 mg/ml by Ellman's method

[2] = target: Acetylcholinesterase (Electrophorus electricus) (UniProt O42275); conditions: at 2 mg/mL
Sequence of Acetylcholinesterase (Electrophorus electricus) (O42275 24-633 limits assumed): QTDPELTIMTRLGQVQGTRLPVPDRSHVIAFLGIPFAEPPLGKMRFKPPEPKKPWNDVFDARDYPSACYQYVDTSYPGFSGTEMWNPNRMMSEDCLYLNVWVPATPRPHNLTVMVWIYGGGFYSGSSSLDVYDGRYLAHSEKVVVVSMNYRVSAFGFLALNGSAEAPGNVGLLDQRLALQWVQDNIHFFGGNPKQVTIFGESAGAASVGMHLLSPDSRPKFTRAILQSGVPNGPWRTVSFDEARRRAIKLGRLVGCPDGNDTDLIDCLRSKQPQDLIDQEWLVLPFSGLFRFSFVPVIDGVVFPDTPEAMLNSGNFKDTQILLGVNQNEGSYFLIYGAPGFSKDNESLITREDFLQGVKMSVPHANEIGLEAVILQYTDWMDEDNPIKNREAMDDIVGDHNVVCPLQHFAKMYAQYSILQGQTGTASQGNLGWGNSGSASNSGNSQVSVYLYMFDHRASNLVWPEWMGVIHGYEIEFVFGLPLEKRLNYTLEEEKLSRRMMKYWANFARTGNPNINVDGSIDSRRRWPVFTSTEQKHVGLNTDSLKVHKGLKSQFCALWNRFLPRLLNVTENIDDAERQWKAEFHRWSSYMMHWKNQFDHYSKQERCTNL
Description: Inhibition of electric eel AChE at 2 mg/ml by Ellman's method

Sequence of Cholinesterase (Equus caballus) (P81908 whole entry): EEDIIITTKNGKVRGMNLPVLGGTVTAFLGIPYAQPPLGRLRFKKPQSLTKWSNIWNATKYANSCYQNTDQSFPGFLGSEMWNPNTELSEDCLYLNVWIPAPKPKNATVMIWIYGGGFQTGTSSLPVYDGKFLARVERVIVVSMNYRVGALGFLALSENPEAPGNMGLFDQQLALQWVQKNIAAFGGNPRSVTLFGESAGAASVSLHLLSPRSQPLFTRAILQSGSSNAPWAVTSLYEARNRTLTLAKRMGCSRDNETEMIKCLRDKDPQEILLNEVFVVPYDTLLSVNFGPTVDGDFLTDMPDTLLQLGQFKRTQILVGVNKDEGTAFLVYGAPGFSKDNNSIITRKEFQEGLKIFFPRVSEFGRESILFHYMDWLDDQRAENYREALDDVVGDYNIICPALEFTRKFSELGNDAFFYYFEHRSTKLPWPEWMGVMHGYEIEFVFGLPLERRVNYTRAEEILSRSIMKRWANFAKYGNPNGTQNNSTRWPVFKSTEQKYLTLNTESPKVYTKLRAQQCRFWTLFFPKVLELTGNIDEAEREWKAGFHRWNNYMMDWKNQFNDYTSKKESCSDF

Row | Structure (SMILES) | inhibition [1] [%] | inhibition [2] [%]
1 | O=C1C[C@@H](c2ccc(O)cc2)Oc2cc(O[C@@H]3O[C@H](CO)[C@@H](O)[C@H](O)[C@H]3O)cc(O)c21 | -1.72 | 18.7
2 | COc1ccc(-c2coc3cc(O)ccc3c2=O)cc1 | 0.57 | 1.62
3 | N[C@@H](Cn1oc(=O)[nH]c1=O)C(=O)O | 2.65 | 23.1
4 | COC[C@H]1OC(=O)c2coc3c2[C@@]1(C)C1=C(C3=O)[C@@H]2CCC(=O)[C@@]2(C)C[C@H]1OC(C)=O | -6.29 | 16.2
5 | CN1C(=O)CC[C@H]1c1cccnc1 | -0.23 | 28.6
6 | CC(=O)O[C@@H]1CC[C@@]2(C)[C@H](C1)[C@H](OC(C)=O)C[C@@H]1[C@@H]2C[C@H]2[C@@H]3CN4C[C@H](C)CC[C@H]4[C@H](C)[C@H]3CC[C@@]12O | 4.14 | 26.8
7 | O=C(/C=C/c1ccc(O)c(O)c1)c1ccc(O)cc1O | -0.63 | 10.1
8 | O=c1cc(-c2ccc(O)cc2)oc2cc(O)cc(O)c12 | 4.5 | 18.4
9 | COc1ccc2cc1Oc1ccc(cc1)C[C@H]1c3cc(c(OC)cc3CCN1C)Oc1c(OC)c(OC)cc3c1[C@H](C2)N(C)CC3 | -1.1 | 15.5
10 | O=c1oc2c(O)c(O)cc3c(=O)oc4c(O)c(O)cc1c4c23 | 4.4 | -6.13
11 | CO[C@H](C)[C@](O)(C(=O)OCC1=CCN2CC[C@H](O)[C@@H]12)C(C)C | 1.48 | 21.3
12 | O=c1c(-c2ccc(O)cc2)coc2cc(O[C@@H]3O[C@H](CO)[C@@H](O)[C@H](O)[C@H]3O)cc(O)c12 | 1.82 | 24.6
13 | CC1=C2C(=CO[C@H](C)[C@H]2C)C(O)=C(C(=O)O)C1=O | 11.3 | 3.11
14 | CCCCCCCCCCCCC/C=C/[C@@H](O)[C@H](CO)NC(=O)CCCCC | 4.36 | 9.07
15 | CN1CCc2cc3c(c4c2[C@H]1Cc1ccccc1-4)OCO3 | 25.9 | 34.2
16 | O[C@H]1[C@H]2[C@H](O)CCCN2C[C@H]1O | -2.04 | 5.09
17 | CN1c2ccccc2C(=O)N2CCc3c([nH]c4ccccc34)[C@@H]21 | 26 | 12.4
18 | COc1ccc(CC2NCCc3cc(OC)c(OC)cc32)cc1OC (centres undefined) | 7.36 | 4.06
19 | O=C(O)c1cc(N(Cc2ccccc2O)Cc2cc(O)ccc2O)ccc1O | 17.7 | 2.35
20 | CN1CCc2cc3c(cc2C(=O)Cc2ccc4c(c2C1)OCO4)OCO3 | 7.56 | 31.1
21 | CN1[C@@H]2CC[C@H]1C[C@H](O)C2 | -9.24 | 1.27
22 | CC[C@H](CC[C@@H](C)[C@H]1CC[C@H]2[C@@H]3CC=C4C[C@@H](O)CC[C@]4(C)[C@H]3CC[C@]12C)C(C)C | -1.87 | 13.8
23 | O=c1cc(-c2ccc(O)cc2)oc2c(O[C@@H]3O[C@H](CO)[C@@H](O)[C@H](O)[C@H]3O)c(O)c(O[C@@H]3O[C@H](CO)[C@@H](O)[C@H](O)[C@H]3O)c(O)c12 | 1.92 | 22.2
24 | COC1=CC(=O)O[C@@H](CCc2ccc3c(c2)OCO3)C1 | 3.66 | 24.8

Row | Structure (SMILES) | inhibition [1] [%] | inhibition [2] [%]
25 | CCCCC[C@H](O)/C=C/[C@H]1[C@H](O)CC(=O)[C@@H]1C/C=C\CCCC(=O)O | -2.38 | 14.8
26 | COc1cccc2oc(-c3ccccc3)cc(=O)c12 | 18.3 | 37.5
27 | COc1cc(C(=O)O[C@H]2C[C@@H]3CC[C@]2(C)C3(C)C)ccc1O | 1.44 | 25.2
28 | COC1=CC(=O)O[C@@H](/C=C/c2ccc3c(c2)OCO3)C1 | 0.15 | -4.34
29 | COc1cc(-c2oc3cc(O)cc(O)c3c(=O)c2OC2O[C@H](CO[C@@H]3O[C@@H](C)[C@H](O)[C@@H](O)[C@H]3O)[C@@H](O)[C@H](O)[C@H]2O)ccc1O (some centres undefined) | 0.75 | 24.8
30 | CCC12C=CCN3CC[C@@]4(c5ccc(OC)cc5N(C)[C@H]4[C@@](O)(C(=O)OC)[C@@H]1OC(C)=O)[C@@H]32 (some centres undefined) | -7.45 | 2.49
31 | COc1ccc(/C=C/c2cc(O)cc(O[C@@H]3O[C@H](CO)[C@@H](O)[C@H](O)[C@H]3O)c2)cc1O | -4.38 | -3.62
32 | C=C1C(=O)[C@]23[C@H](O)[C@H]1CC[C@H]2[C@@]12CO[C@]3(O)[C@@H](O)[C@@H]1C(C)(C)CC[C@@H]2O | 0.03 | 24.7
33 | O=C1C[C@@H](c2ccc(O)c(O)c2)Oc2cc(O[C@@H]3O[C@H](CO)[C@@H](O)[C@H](O)[C@H]3O)cc(O)c21 | -9.51 | 25.4
34 | COc1cc([C@@H]2CC(=O)c3c(O)cc(O)cc3O2)ccc1O | 3.1 | 29.5
35 | CC1(C)CCC[C@]2(C)[C@H]3CC(=O)O[C@]3(C)CC[C@@H]12 | -1.03 | -6.49
36 | CN(C)CCc1ccc(O)cc1 | -2.06 | -4.35
37 | CO[C@H]1C[C@H](O[C@H]2[C@H](C)[C@@H](O[C@@H]3O[C@H](C)C[C@H](N(C)C)[C@H]3OC(C)=O)[C@@H](C)C[C@@]3(CO3)C(=O)[C@H](C)[C@@H](OC(C)=O)[C@@H](C)[C@@H](C)OC(=O)[C@@H]2C)O[C@@H](C)[C@@H]1OC(C)=O | -1.09 | 14.8
38 | C=C1CC[C@H]2C(=C)CC[C@H]3C(=C)C(=O)O[C@@H]3[C@@H]12 | 10.7 | 4.06
39 | O=c1cc(-c2ccccc2)oc2cc(O)ccc12 | -0.25 | 24.4
40 | CCCCC[C@H](O)/C=C/[C@@H]1[C@@H](C/C=C\CCCC(=O)O)[C@@H](O)C[C@H]1O | 5.03 | 12.9
41 | COc1c2ccoc2cc2oc(=O)ccc12 | 10.3 | 21.3
42 | CO[C@@]12[C@H](COC(N)=O)C3=C(C(=O)C(C)=C(N)C3=O)N1C[C@@H]1N[C@@H]12 | 3.34 | 4.01
43 | O=C1/C(=C/c2ccc(O)c(O)c2)Oc2c1ccc(O[C@@H]1O[C@H](CO)[C@@H](O)[C@H](O)[C@H]1O)c2O | 3.06 | 22.4
44 | C=C1[C@@H](C)[C@H]2[C@H](Cc3ccccc3)NC(=O)[C@]23[C@H](OC(C)=O)/C=C/[C@@](C)(O)C(=O)[C@@H](C)C/C=C/[C@H]3[C@@H]1O | 3.92 | -2.15
45 | COc1cc2c3cc1Oc1c(OC)c(OC)cc4c1[C@@H](Cc1ccc(O)c(c1)Oc1ccc(cc1)C[C@@H]3N(C)CC2)N(C)CC4 | 68.5 | 11.4
46 | C[C@H]1C/C=C/[C@H]2[C@@H]3O[C@]3(C)[C@@H](C)[C@H]3[C@H](Cc4ccccc4)NC(=O)[C@]32OC(=O)O/C=C/[C@@](C)(O)C1=O | 9.25 | 5.91
47 | OC[C@@H]1CCCN2CCCC[C@H]12 | -7.44 | 1.61
48 | CN1C2CCCC1CC(=O)C2 | 1.42 | 16.5

Row | Structure (SMILES) | inhibition [1] [%] | inhibition [2] [%]
49 | O=c1cc(-c2ccccc2)oc2cc(O)cc(O)c12 | 2.93 | 14.6
50 | CC(=O)OC[C@@]1(O)C[C@@]23CC[C@@H]4c5ccoc5C=C[C@@]4(C)[C@@H]2CC[C@@H]1C3 | 1.7 | 14.1
51 | O=c1c(O)c(-c2ccc(O)cc2O)oc2cc(O)cc(O)c12 | -3.98 | 18.1
52 | C=C[C@H]1CN2CC[C@H]1C[C@@H]2[C@@H](O)c1ccnc2ccccc12 | 9.07 | 5.94
53 | COc1ccc(-c2cc(=O)c3c(O)cc(O[C@@H]4O[C@H](CO[C@@H]5O[C@@H](C)[C@H](O)[C@@H](O)[C@H]5O)[C@@H](O)[C@H](O)[C@H]4O)cc3o2)cc1O | 7.92 | 9.59
54 | OCc1c[nH]c2ccccc12 | 9.11 | -4.82
55 | COc1cc(/C=C/C(=O)O)ccc1O | -0.02 | -1.29
56 | COc1ccc(-c2cc(=O)c3c(O)cc(O)cc3o2)cc1 | -2.17 | -1.38
57 | CC[C@]1(O)C[C@H]2CN(CCc3c([nH]c4ccccc34)[C@@](C(=O)OC)(c3cc4c(cc3OC)N(C=O)[C@H]3[C@@](O)(C(=O)OC)[C@H](OC(C)=O)[C@]5(CC)C=CCN6CC[C@]43[C@@H]65)C2)C1 | 2.81 | 10.9
58 | CN1CCC[C@H]1c1cccnc1 | 1.2 | 15.6
59 | O=C1/C(=C/c2ccc(O)c(O)c2)Oc2cc(O)ccc21 | -2.22 | 24.4
60 | C[C@H]1CC[C@@H]2[C@@H](C)[C@H]3[C@H](C[C@H]4[C@@H]5CC[C@H]6C[C@@H](O)CC[C@]6(C)[C@H]5CC[C@]34C)N2C1 | 41.9 | 5.43
61 | CN1C[C@H](CO)C[C@@H]2c3cccc4[nH]cc(c34)C[C@H]21 | 15.3 | 6.82
62 | Cn1c(-c2ccc3c(c2)OCO3)cc(=O)c2ccccc21 | 9.48 | 31.1
63 | C[N+]1([O-])[C@@H]2CC[C@H]1C[C@H](OC(=O)C(CO)c1ccccc1)C2 (some centres undefined) | -2.78 | 25.9
64 | COc1c2occc2cc2ccc(=O)oc12 | 8.34 | 4.4
65 | O=C(O)Cc1c[nH]c2ccccc12 | -7.42 | 2.98
66 | C/C=C(/C)C(=O)O[C@H]1C[C@@]2(C)O[C@H]2[C@@H](O)[C@@]2(C)CC[C@@](O)(C(C)C)[C@H]12 | -1.91 | 17.2
67 | C=C(C)[C@@H]1CC[C@]2(C(=O)O)CC[C@]3(C)[C@H](CC[C@@H]4[C@@]5(C)CC[C@H](O)C(C)(C)[C@@H]5CC[C@]43C)[C@@H]12 | 2.88 | -5.33
68 | Cc1nccc2c1[nH]c1ccccc12 | 39.4 | 22.2
69 | CCCCCCCCCCCCCC[C@@H](O)[C@@H](O)[C@H](CO)NC(C)=O | 3.97 | 0.15
70 | O=c1cc(-c2ccccc2)oc2cc(O)c(O)cc12 | 1.82 | 23.1
71 | C[C@@H]1O[C@@H](OC[C@H]2O[C@@H](Oc3c(-c4ccc(O)c(O)c4)oc4cc(O)cc(O)c4c3=O)[C@H](O)[C@@H](O)[C@@H]2O)[C@H](O)[C@H](O)[C@H]1O | 4.32 | -0.25
72 | COc1cc(CCC(C)=O)ccc1O | 10.8 | -5.32
